Data: ChEMBL document CHEMBL1641370, “Novel 6,7,8,9-tetrahydro-5H-1,4,7,10a-tetraaza-cyclohepta[f]indene analogues as potent and selective 5-HT(2C) agonists for the treatment of metabolic disorders” (Bioorg Med Chem Lett, 2011)

Assays:
[1] = biological target: T1, 5-hydroxytryptamine receptor 2B (Homo sapiens, UniProt P41595); test: Agonist activity at human recombinant 5HT2B receptor expressed in CHOK1 cells assessed as induction of intracellular calcium release by FLIPR assay relative to 5-HT; type: functional, cell-based; settings: CHO-K1
[2] = biological target: T2, 5-hydroxytryptamine receptor 2A (Homo sapiens, UniProt P28223); test: Agonist activity at human recombinant 5HT2A receptor expressed in CHOK1 cells assessed as induction of intracellular calcium release by FLIPR assay; type: functional, cell-based, CHO-K1
[3] = biological target: T2, 5-hydroxytryptamine receptor 2A; test: Agonist activity at human recombinant 5HT2A receptor expressed in CHOK1 cells assessed as induction of intracellular calcium release by FLIPR assay relative to 5-HT; type: functional, cell-based; settings: CHO-K1
[4] = biological target: T3, 5-hydroxytryptamine receptor 2C (Homo sapiens, UniProt P28335); test: Agonist activity at human recombinant 5HT2C receptor expressed in CHOK1 cells assessed as induction of intracellular calcium release by FLIPR assay; type: functional, cell-based, CHO-K1
T3 sequence (P28335 whole entry): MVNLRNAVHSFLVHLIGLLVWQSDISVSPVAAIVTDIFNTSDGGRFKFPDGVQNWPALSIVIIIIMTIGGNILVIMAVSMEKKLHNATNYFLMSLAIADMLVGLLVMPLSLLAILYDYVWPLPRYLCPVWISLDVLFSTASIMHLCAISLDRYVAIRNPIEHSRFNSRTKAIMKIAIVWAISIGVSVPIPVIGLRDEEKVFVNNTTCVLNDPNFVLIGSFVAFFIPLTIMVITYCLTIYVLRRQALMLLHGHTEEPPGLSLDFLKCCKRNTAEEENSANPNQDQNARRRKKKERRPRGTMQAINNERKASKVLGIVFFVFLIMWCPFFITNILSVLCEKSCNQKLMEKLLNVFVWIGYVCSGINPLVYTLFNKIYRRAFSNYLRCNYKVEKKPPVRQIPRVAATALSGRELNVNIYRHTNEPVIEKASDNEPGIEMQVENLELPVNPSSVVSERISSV

[5] = biological target: T4, 5-hydroxytryptamine receptor 2C (Homo sapiens) (UniProt P28335); test: Agonist activity at human recombinant 5HT2C receptor expressed in CHOK1 cells assessed as induction of intracellular calcium release by FLIPR assay relative to 5-HT; type: functional, cell-based; settings: CHO-K1
T4 sequence (whole entry): T3 sequence (P28335 whole entry)

[6] = biological target: T1, 5-hydroxytryptamine receptor 2B; test: Agonist activity at human recombinant 5HT2B receptor expressed in CHOK1 cells assessed as induction of intracellular calcium release by FLIPR assay; type: functional, cell-based, CHO-K1
hERG (KCNH2) = hERG (KCNH2) (Homo sapiens, UniProt Q12809); test: Inhibition of human ERG expressed in CHO cells at 10 uM by whole cell patch-clamp technique; type: cell-based; settings: CHO cells expressing human ERG
Rattus norvegicus [7] = test: Dose normalized AUC in Wistar rat at 30 mg/kg, po; type: ADME, organism-based; parameters: dose 30 mg/kg, route oral; settings: in vivo
Rattus norvegicus [8] = test: Antiobesity activity in Wistar rat cafteria diet model assessed as weight loss at 30 mg/kg, po after 3 day relative to control; type: functional
[9] = Volume of distribution at steady state in Wistar rat at 10 mg/kg, iv and 30 mg/kg, po; type: ADME, organism-based; settings: in vivo, read-out: Vdss
[10] = Clearance in Wistar rat at 10 mg/kg, iv and 30 mg/kg, po; type: ADME, organism-based; settings: in vivo
[11] = Mean residence time in Wistar rat at 10 mg/kg, iv; type: ADME, organism-based; parameters: dose 10 mg/kg, route intravenous; settings: in vivo
[12] = Ratio of drug level in CSF to fraction unbound in plasma of Wistar rat at 30 mg/kg, po at 2 hrs; type: ADME, organism-based; parameters: dose 30 mg/kg, route oral; settings: in vivo
[13] = Mean residence time in Wistar rat at 30 mg/kg, po; type: ADME, organism-based; parameters: dose 30 mg/kg, route oral; settings: in vivo
Rattus norvegicus [14] = test: Antiobesity activity in Wistar rat cafteria diet model assessed as weight loss at 100 mg/kg, po after 3 day relative to control; type: functional
[15] = Permeability from apical to basolateral side of human Caco2 cells; type: ADME, cell-based; settings: caco-2, read-out: permeability
Caco-2 = test: Efflux ratio of permeability from […] of human Caco2 cells; type: ADME, cell-based
Homo sapiens = organism: Homo sapiens; test: Selectivity ratio of EC50 for human recombinant 5HT2B receptor to EC50 for human recombinant 5HT2C receptor
[16] = biological target: Serotonin 2 receptors; 5-HT2a & 5-HT2c (Homo sapiens) (UniProt P28223+P28335); test: Selectivity ratio of EC50 for human recombinant 5HT2A receptor to EC50 for human recombinant 5HT2C receptor
Chain of Serotonin 2 receptors; 5-HT2a & 5-HT2c (Homo sapiens) (P28223 whole entry, looked up, one chain of several): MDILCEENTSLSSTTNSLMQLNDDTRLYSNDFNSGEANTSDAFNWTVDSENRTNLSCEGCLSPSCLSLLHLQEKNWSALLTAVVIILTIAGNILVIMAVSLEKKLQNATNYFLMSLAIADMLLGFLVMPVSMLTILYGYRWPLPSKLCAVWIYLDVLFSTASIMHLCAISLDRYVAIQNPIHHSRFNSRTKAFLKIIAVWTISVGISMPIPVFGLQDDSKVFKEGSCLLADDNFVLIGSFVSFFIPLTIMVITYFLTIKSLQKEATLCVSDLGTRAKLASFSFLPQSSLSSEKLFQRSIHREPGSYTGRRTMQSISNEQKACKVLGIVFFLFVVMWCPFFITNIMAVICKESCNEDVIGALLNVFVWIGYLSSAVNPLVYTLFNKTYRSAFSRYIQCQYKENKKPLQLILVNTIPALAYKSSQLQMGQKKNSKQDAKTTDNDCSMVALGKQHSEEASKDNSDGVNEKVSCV

Chain of hERG (KCNH2) (Q12809 whole entry): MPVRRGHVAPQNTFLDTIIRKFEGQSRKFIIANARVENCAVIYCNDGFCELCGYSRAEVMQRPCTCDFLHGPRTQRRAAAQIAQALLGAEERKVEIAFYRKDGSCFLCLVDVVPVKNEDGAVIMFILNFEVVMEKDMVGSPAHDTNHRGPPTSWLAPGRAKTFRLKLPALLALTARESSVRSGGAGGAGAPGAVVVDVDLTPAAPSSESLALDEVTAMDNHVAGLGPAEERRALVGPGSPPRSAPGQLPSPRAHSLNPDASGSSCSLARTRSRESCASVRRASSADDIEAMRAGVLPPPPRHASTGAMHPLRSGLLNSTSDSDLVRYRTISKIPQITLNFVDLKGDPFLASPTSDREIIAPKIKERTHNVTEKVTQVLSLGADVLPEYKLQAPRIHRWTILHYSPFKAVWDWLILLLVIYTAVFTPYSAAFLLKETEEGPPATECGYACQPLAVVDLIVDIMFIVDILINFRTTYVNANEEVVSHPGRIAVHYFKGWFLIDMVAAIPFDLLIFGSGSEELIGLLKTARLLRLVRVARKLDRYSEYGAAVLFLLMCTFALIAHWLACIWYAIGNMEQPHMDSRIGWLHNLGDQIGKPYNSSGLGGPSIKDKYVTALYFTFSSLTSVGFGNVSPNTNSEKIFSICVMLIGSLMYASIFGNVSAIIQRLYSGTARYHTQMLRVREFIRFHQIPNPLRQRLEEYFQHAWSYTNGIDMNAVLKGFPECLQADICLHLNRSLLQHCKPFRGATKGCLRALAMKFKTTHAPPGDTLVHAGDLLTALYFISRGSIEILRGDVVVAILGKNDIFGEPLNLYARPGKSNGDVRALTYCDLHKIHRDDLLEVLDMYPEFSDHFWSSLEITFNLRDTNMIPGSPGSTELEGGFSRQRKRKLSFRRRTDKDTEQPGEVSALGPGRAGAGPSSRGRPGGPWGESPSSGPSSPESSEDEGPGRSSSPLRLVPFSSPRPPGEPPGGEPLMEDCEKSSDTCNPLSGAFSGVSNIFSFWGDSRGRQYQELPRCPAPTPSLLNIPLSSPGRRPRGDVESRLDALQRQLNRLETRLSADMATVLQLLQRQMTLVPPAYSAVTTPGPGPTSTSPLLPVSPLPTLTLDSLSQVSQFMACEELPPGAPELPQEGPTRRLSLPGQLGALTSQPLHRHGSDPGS
T2 sequence (P28223 whole entry): as the sequence (P28223 whole entry, looked up, one chain of several) above
T1 sequence (P41595 whole entry): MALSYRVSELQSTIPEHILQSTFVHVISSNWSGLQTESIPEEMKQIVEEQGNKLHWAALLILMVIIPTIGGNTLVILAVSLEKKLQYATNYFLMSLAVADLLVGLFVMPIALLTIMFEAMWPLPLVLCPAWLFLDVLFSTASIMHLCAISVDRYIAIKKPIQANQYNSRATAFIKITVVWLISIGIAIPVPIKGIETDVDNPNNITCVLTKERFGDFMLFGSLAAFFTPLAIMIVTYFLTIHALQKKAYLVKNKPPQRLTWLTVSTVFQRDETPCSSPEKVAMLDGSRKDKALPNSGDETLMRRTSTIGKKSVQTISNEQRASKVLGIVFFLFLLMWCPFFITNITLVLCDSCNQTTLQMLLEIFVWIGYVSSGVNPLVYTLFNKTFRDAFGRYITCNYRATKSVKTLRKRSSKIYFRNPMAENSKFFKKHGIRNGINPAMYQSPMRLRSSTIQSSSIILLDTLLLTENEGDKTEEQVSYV

Compound | Emax [1] | EC50 [2] | Emax [3] | EC50 [4] | Emax [5] | EC50 [6] | inhibition at 10 µM (hERG (KCNH2)) | AUC (Rattus norvegicus [7]) | Activity (Rattus norvegicus [8]) | Vd [9] | clearance [10] | MRT [11] | Ratio [12] | MRT [13] | Activity (Rattus norvegicus [14]) | Papp A→B [15] | Ratio (Caco-2) | Ratio EC50 (Homo sapiens) | Ratio EC50 [16]
c1cc2nc3c(c(N4CCCC4)n2n1)CCNCC3 | 36% | 2310 nM | 15% | 764 nM | 110% | 2240 nM | – | – | – | – | – | – | – | – | – | – | – | – | –
COc1ccc(OC2CN(c3c4c(nc5ccnn35)CCNCC4)C2)cc1 | 31% | 2630 nM | 21% | 95 nM | 76% | 503 nM | 93% | 0.72 µM·h | 3.2% | 11 L/kg | 14 mL/min/kg | 13 h | 0.15 | > 24 h | 3.3% | 10.4 ×10⁻⁶ cm/s | 1.3 | – | –
c1cc2nc3c(c(N4CCC4)n2n1)CCNCC3 | 97% | 2350 nM | 51% | 5.4 nM | 103% | 94 nM | – | – | – | – | – | – | – | – | – | – | – | < 20 | > 100
O=C1Cc2cc(OC3CN(c4c5c(nc6ccnn46)CCNCC5)C3)ccc2N1 | 82% | 762 nM | 86% | 8.4 nM | 99% | 73 nM | 11% | – | – | – | – | – | – | – | – | – | – | – | –
Fc1ccccc1OC1CN(c2c3c(nc4ccnn24)CCNCC3)C1 | 69% | 648 nM | 15% | 5 nM | 85% | 94 nM | – | – | – | – | – | – | – | – | – | – | – | – | –
CC(=O)N(C)c1ccc(OC2CN(c3c4c(nc5ccnn35)CCNCC4)C2)cc1 | 60% | 2050 nM | 35% | 188 nM | 96% | 1180 nM | 5% | – | – | – | – | – | – | – | – | 0.62 ×10⁻⁶ cm/s | 6.9 | – | –
c1cncc(OC2CN(c3c4c(nc5ccnn35)CCNCC4)C2)c1 | 73% | 63 nM | 94% | 211 nM | 99% | 1480 nM | – | – | – | – | – | – | – | – | – | – | – | – | –
c1cc2nc3c(c(N4CCCCC4)n2n1)CCNCC3 | 28% | 585 nM | 10% | 4560 nM | 139% | 2850 nM | – | – | – | – | – | – | – | – | – | – | – | – | –
Fc1cccc(OC2CN(c3c4c(nc5ccnn35)CCNCC4)C2)c1 | 23% | 32 nM | 5% | 25 nM | 78% | 13 nM | 93% | – | – | – | – | – | – | – | – | 7.9 ×10⁻⁶ cm/s | 1.6 | – | –
COc1ccccc1OC1CN(c2c3c(nc4ccnn24)CCNCC3)C1 | 89% | 2680 nM | 48% | 84 nM | 84% | 379 nM | 88% | – | – | – | – | – | – | – | – | – | – | – | –
CCNc1c2c(nc3ccnn13)CCNCC2 | 97% | 138 nM | 62% | 63 nM | 104% | 602 nM | – | – | – | – | – | – | – | – | – | – | – | – | –
c1ccc(OC2CN(c3c4c(nc5ccnn35)CCNCC4)C2)cc1 | 58% | 7770 nM | 22% | 18 nM | 95% | 218 nM | 81% | – | – | – | – | – | – | – | – | 13.3 ×10⁻⁶ cm/s | 2.3 | – | –
COc1cccc(OC2CN(c3c4c(nc5ccnn35)CCNCC4)C2)c1 | 43% | 40 nM | 9% | 65 nM | 88% | 215 nM | 97% | – | – | – | – | – | – | – | – | 10.1 ×10⁻⁶ cm/s | 2.1 | – | –
c1cc(OC2CN(c3c4c(nc5ccnn35)CCNCC4)C2)ccn1 | 79% | 1230 nM | 27% | 574 nM | 102% | 1160 nM | – | – | – | – | – | – | – | – | – | – | – | – | –
Fc1ccc(OC2CN(c3c4c(nc5ccnn35)CCNCC4)C2)cc1 | 43% | 3 nM | 8% | 23 nM | 95% | 163 nM | 95% | – | – | – | – | – | – | – | – | – | – | – | –
c1ccc(OC2CN(c3c4c(nc5ccnn35)CCNCC4)C2)nc1 | 71% | 5170 nM | 29% | 37 nM | 93% | 706 nM | 78% | – | – | – | – | – | – | – | – | 10.3 ×10⁻⁶ cm/s | 2.2 | – | –
CCN(C)c1c2c(nc3ccnn13)CCNCC2 | 69% | – | – | 362 nM | 105% | 842 nM | – | – | – | – | – | – | – | – | – | – | – | – | –
